The target of experiment [1] is T1, Calcitonin gene-related peptide type 1 receptor (Homo sapiens, UniProt O60894+Q16602). In words: Antagonist activity at CGRP receptor in human SK-N-MC cells assessed as inhibition of alpha-CGRP-induced c-AMP formation after 15 mins by radioimmunoassay. Format: cell-based.
In experiment [2] the target is T1, Calcitonin gene-related peptide type 1 receptor. Nature of the experiment: Displacement of [125I]-hCGRP from CGRP receptor in human SK-N-MC cell membranes after 2 hrs by scintillation counting analysis.

T1 sequence (Q16602 whole entry, one chain of several): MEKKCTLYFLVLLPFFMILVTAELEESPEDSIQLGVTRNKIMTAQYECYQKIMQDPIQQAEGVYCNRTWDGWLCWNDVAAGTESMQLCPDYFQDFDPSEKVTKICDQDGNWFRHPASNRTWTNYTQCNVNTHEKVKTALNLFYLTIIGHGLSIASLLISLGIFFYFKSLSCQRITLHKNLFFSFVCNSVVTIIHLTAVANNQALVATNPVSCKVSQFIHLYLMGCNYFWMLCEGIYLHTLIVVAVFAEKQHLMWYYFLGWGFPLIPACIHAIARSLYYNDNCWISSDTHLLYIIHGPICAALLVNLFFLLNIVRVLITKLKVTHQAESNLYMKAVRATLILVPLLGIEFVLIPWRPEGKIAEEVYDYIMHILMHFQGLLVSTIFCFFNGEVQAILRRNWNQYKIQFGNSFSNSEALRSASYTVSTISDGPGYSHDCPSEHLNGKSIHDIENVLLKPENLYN

For orientation: EC50 means the concentration that produces a half-maximal response. Regarding `NCCCC[C@H](NC(=O)[C@@H](Cc1cc(Br)c(O)c(Br)c1)NC(=O)N1CCC(n2c(=O)[nH]c3ccccc3c2=O)CC1)C(=O)N1CCN(c2ccncc2)CC1`, the EC50 in experiment [1] worked out at 0.15 nM. What is called IC50 is the concentration that gives 50% inhibition. Regarding `NCCCC[C@H](NC(=O)[C@@H](Cc1cc2ccccc2s1)NC(=O)N1CCC(N2Cc3ccccc3NC2=O)CC1)C(=O)N1CCN(c2ccncc2)CC1`, the EC50 in experiment [1] was found to be 96 nM. In experiment [2], the IC50 was 25 nM.

Consider `NCCCC[C@H](NC(=O)[C@@H](Cc1cc2ccccc2s1)NC(=O)N1CCC(n2c(=O)[nH]c3ccccc3c2=O)CC1)C(=O)N1CCN(c2ccncc2)CC1`, for which the EC50 in experiment [1] was determined as 100 nM. Moreover, the IC50 in experiment [2] was 2.7 nM.
